Data on two compounds can be found in patent US4999199A, “Pharmaceutical formulations: liposomes incorporating aromatic polyene antibiotics” (priority 1988, dated 1991).

For series [1] the following is noted: conventional formulations, parenteral; cited from earlier work.
For series [2], the system named is humans. The following applies: given orally to humans; cited from earlier work.
For series [3], the system named is human red blood cells (RBC). Kind of series: In vitro toxicity toward red blood cells (hemoglobin release, hemolysis). The note with it: at 75 Mg/ml (so in the source); 20% human RBC, 45 minutes at 37° C.; hypotonic water = 100% lysis. As to the method: The samples were incubated for 45 minutes at 37° C., centrifuged at 10,000 xg for 20 minutes, and the hemoglobin content of the supernatant determined by its light absorbance. The release of hemoglobin by a hypotonic water solution was also measured and was considered to represent 100% lysis.

Series [4] relates to various fungi. In words: In vitro susceptibility experiments, candicidin compared with amphotericin B. In kind it is cell-based. The following applies: experiments in various laboratories including those of the present inventors.
For series [5] the following is noted: cited from earlier work.

For `C[C@@H]1[C@H](O)[C@@H](C)/C=C/C=C/C=C/C=C/C=C/C=C/C=C/[C@H](O[C@@H]2O[C@H](C)[C@@H](O)[C@H](N)[C@@H]2O)C[C@@H]2O[C@](O)(C[C@@H](O)C[C@@H](O)[C@H](O)CC[C@@H](O)C[C@@H](O)CC(=O)O[C@H]1C)C[C@H](O)[C@H]2C(=O)O` [amphotericin B], the “persons given amphotericin B who develop decreased renal function and abnormal urine sediment” value in series [1] is listed as “over 80%”.

On to candicidin, for which the “toxicity on oral administration” value in series [2] is reported as “without any toxicity”. Also, the RBC hemolysis in series [3] is recorded as 75%. For the same compound, the “antifungal activity compared with amphotericin B” value in series [4] was “much higher antifungal activity than amphotericin B”. In addition, the water solubility result in series [5] is “totally water insoluble”.
